Data: patent US9237747B2, “Herbicidal compositions comprising 4-amino-3-chloro-5-fluoro-6-(4-chloro-2-fluoro-3-methoxyphenyl) pyridine-2-carboxylic acid or a derivative thereof and insecticides” (priority 2013, dated 2016)
Like-named read-outs stand apart in the source and are kept apart here.

How the values were obtained:
BRAPP = test: Postemergence foliar-applied weed control, direct-seeded rice (greenhouse); assay type: in vivo, Brachiaria platyphylla; conditions: 4.38 g ae/ha alone
Description: (§1) Seeds or nutlets of the desired test plant species were planted in a soil matrix prepared by mixing a loam or sandy loam soil (e.g., 28.6 percent silt, 18.8 percent clay, and 52.6 percent sand, with a pH of about 5.8 and an organic matter content of about 1.8 percent) and calcareous grit in an 80 to 20 ratio. The soil matrix was contained in plastic pots with a volume of 1 quart and a surface area of 83.6 square centimeters (cm^2). When required to ensure good germination and healthy plants, a fungicide treatment and/or other chemical or physical treatment was applied. The plants were grown for 8-22 days in a greenhouse with an approximate 14 hour (h) photoperiod which was maintained at about 29° C. during the day and 26° C. during the night. Nutrients (Peters Excel® 15-5-15 5-Ca 2-Mg and iron chelate) were applied in the irrigation solution as needed and water was added on a regular basis. Supplemental lighting was provided with overhead metal halide 1000-Watt lamps as necessary. The plants were employed for testing when they reached the first through fourth true leaf stage.
(§2) Treatments consisted of the acid or esters of 4-amino-3-chloro-6-(4-chloro-2-fluoro-3-methoxyphenyl)-5-fluoropyridine-2-carboxylic acid (Compound A), each formulated as an SC (suspension concentrate), and various insecticidal components alone and in combination. Forms of compound A were applied on an acid equivalent basis.
(§3) Treatment requirements were calculated based upon the rates being tested, the concentration of active ingredient or acid equivalent in the formulation, and a 12 milliliter (mL) application volume at a rate of 187 liters per hectare (L/ha).
(§4) For treatments comprised of formulated compounds, measured amounts of compounds were placed individually in 25 mL glass vials and diluted in a volume of 1.25% volume per volume (v/v) Agri-Dex® crop oil concentrate to obtain 12× stock solutions. […] Application solutions were prepared by adding an appropriate amount of each stock solution (e.g., 1 mL) and diluted to the appropriate final concentrations with the addition of […] of an aqueous mixture of 1.25% (v/v) crop oil concentrate so that the final spray solutions contained 1.25+/−0.05% (v/v) crop oil concentrate.
(§5) As required, additional water and/or 97:3 v/v acetone/DMSO was added to individual application solutions so that the final acetone and DMSO concentrations of the application solutions being compared were 8.1% and 0.25%, respectively.
(§6) All stock solutions and applications solutions were visually inspected for compound compatibility prior to application. Spray solutions were applied to the plant material with an overhead Mandel track sprayer equipped with 8002E nozzles calibrated to deliver 187 L/ha over an application area of 0.503 square meters (m^2) at a spray height of 18 to 20 inches (46 to 50 cm) above average plant canopy height. Control plants were sprayed in the same manner with the solvent blank.
(§7) The treated plants and control plants were placed in a greenhouse as described above and watered by sub-irrigation to prevent wash-off of the test compounds. After approximately 3 weeks, the condition of the test plants as compared to that of the untreated plants was determined visually and scored on a scale of 0 to 100 percent where 0 corresponds to no injury or growth inhibition and 100 corresponds to complete kill.
(§8) Colby's equation was used to determine the herbicidal effects expected from the mixtures (Colby, S. R. Calculation of the synergistic and antagonistic response of herbicide combinations. Weeds 1967, 15, 20-22.).
(§9) The following equation was used to calculate the expected activity of mixtures containing two active ingredients, A and B: Expected=A+B−(A×B/100)

CYPIR = assay type: in vivo, Cyperus iria; conditions: 4.38 g ae/ha alone
Description: as §1, §2, §3, §4, §5, §6, §7, §8, §9

DIGSA = assay type: in vivo, Digitaria sanguinalis
Description: as §1, with “When required to ensure good germination and healthy plants, a fungicide treatment and/or other chemical or physical treatment was applied.” left out
as §2, §4, §5, §6, §7, §8, §9

LEFCH = test: whole plant or invertebrate; assay type: in vivo, Leptochloa chinensis
Description: as §1, with “When required to ensure good germination and healthy plants, a fungicide treatment and/or other chemical or physical treatment was applied.” left out
as §2, §4, §5, §6, §7, §8, §9

Question: What does the source list for `COc1c(Cl)ccc(-c2nc(C(=O)O)c(Cl)c(N)c2F)c1F` [Compound A Acid, 4-amino-3-chloro-6-(4-chloro-2-fluoro-3-methoxyphenyl)-5-fluoropyridine-2-carboxylic acid]?
Answer: Visual Weed Control (%) - 20 DAA BRAPP Obs (BRAPP): 70%; Visual Weed Control (%) - 20 DAA CYPIR Obs (CYPIR): 30%; Visual Weed Control (%) - 20 DAA DIGSA Obs (DIGSA; 4.38 g ae/ha alone): 40%; Visual Weed Control (%) - 20 DAA DIGSA Obs (DIGSA; 5.3 g ae/ha alone): 15%; Visual Weed Control (%) - 20 DAA DIGSA Obs (DIGSA; 10.6 g ae/ha alone): 35%; Visual Weed Control (%) - 20 DAA DIGSA Obs (DIGSA; 21.2 g ae/ha alone): 50%; Visual Weed Control (%) - 20 DAA LEFCH Obs (LEFCH; 4.38 g ae/ha alone): 0%; Visual Weed Control (%) - 20 DAA LEFCH Obs (LEFCH; 5.3 g ae/ha alone): 0%; Visual Weed Control (%) - 20 DAA LEFCH Obs (LEFCH; 10.6 g ae/ha alone): 20%; Visual Weed Control (%) - 21 DAA LEFCH Obs (LEFCH; 8.75 g ae/ha alone): 30%; Visual Weed Control (%) - 21 DAA LEFCH Obs (LEFCH; 17.5 g ae/ha alone): 30%; Visual Weed Control (%) - 20 DAA LEFCH Obs (LEFCH; 21.2 g ae/ha alone): 45%
